Results as given in patent publication US20060135510A1 (The Trustees of the University of Pennsylvania, priority 2004, published 2006).

Tests used:
[1] = system: SQ20B cells; assay: Clonogenic assay, radiosensitization of SQ20B cells; format: cell-based, human
Method: Cultures in log growth phase were counted and plated in 60-mm dishes containing 4 ml of media. The cells were allowed to attach and inhibitors were added to cultures at least one hour prior to radiation. Cells were irradiated with a Mark I cesium irradiator (J. L. Shepherd, San Fernando, Calif.) at a dose rate of 1.6 Gy/min. Colonies were stained and counted 10-14 days after irradiation. Typically, at least 6 dishes are prepared at each dose level of radiation.
(§1) Cultures of cells in log growth phase were counted and plated in 60-mm dishes containing 4 ml of media. […] Cells were irradiated with a Mark I cesium irradiator (J. L. Shepherd, San Fernando, Calif.) at a dose rate of 1.6 Gy/min. Colonies were stained and counted 10-14 days after irradiation. A light box was used to assist in counting colonies. The surviving fraction was calculated by dividing the number of colonies formed by the number of cells plated times plating efficiency (Table 1). Each point value represents the mean surviving fraction from at least six replicate dishes.

[2] = system: A549; assay: Clonogenic assay, radiation sensitization of A549 cells; format: cell-based; settings: control SF2 0.570 +/− 0.042
Method: as §1

[3] = system: SQ20B xenograft tumors; assay: In vivo to in vitro clonogenic assay in nude mice with SQ20B tumors; set-up: species or system mouse; settings: osmotic pump placed 2 days prior, 8 Gy, FIG. 11
Method: The mice in the study had SQ20B xenograft tumors on a hind leg. The pump was placed into the mouse 2 days prior to experiment. On the day of the experiment, the mouse was anesthetized and irradiated to 8 Gy. The tumor was then harvested and a cell suspension made. The cells were plated and the plating efficiency determined to indicate the number of cells that were viable and able to reproduce by forming colonies in each individual group (plating efficiency).
FIG. 8 illustrates the results of an in vivo to in vitro clonogenic assay in nude mice with SQ20B tumors.

[4] = system: Akt; assay: Western blot analysis of Akt phosphorylation in SQ20B cells; format: cell-based, human
Method: Using Western blot analysis, a human head-and-neck cancer cell line, SQ20B, (American Type Culture Collection; Manassas, Va.) containing a constitutively-active EGFR receptor and thus, increased signaling through PI3K, was examined for Akt phosphorylation.
Cells were lysed without trypsinization by rinsing culture dishes once with PBS followed by lysis with reducing Laemeli sample buffer. Samples were boiled, sheared, and clarified by centrifugation and stored at −20° C. […] Membranes were blocked in PBS containing 0.1% Tween-20 and 5% powdered milk before primary antibody addition. The dilution of the primary antibody was 1:2000. Antibody binding was detected using the ECL chemiluminescence kit (Amersham, Arlington Heights, Ill.). Images were digitized using an Arcus II scanner, and figures were assembled using Adobe Photoshop 3.0 and Microsoft Power Point programs.

[5] = dose of about 1200 mg bid; cited from earlier work
[6] = system: T24; assay: Clonogenic assay, radiation sensitization of T24 cells; format: cell-based, human; settings: control SF2 0.560 +/− 0.061
Method: as §1

[7] = Amprenavir by pump + 8 Gy vs 8 Gy alone, right hind leg
[8] = system: REF; assay: Clonogenic assay, radiation sensitization of REF cells; format: cell-based; settings: control SF2 0.408 +/− 0.040
Method: as §1

[9] = system: MIAPACA2; assay: Clonogenic assay, radiation sensitization of MIAPACA2 cells; format: cell-based; settings: control SF2 0.906 +/− 0.086
Method: as §1

Compound: CC(C)CN(C[C@@H](O)[C@H](Cc1ccccc1)NC(=O)O[C@H]1CCOC1)S(=O)(=O)c1ccc(N)cc1 [Amprenavir, amprenavir]
- survival difference in cell kill numbers ([1]; 30 fractions of 2 Gy, SF2 0.51 vs 0.7): ~4 log
- surviving fraction after 2 Gy (SF2) ([1]; SQ20B cells, 5 μM Amprenavir + 2 Gy radiation, control 70% (FIG. 6)): 51%
- Amprenavir SF2 ([1]; SQ20B, control SF2 0.691 +/− 0.042): 0.432 +/− 0.017
- survival value after 30 fractions of 2 Gy ([1]; calculated from SF2 0.51, without drug 2.25×10^−5): 1.68×10^−9
- cell kill, combination of radiation and Amprenavir ([1]; clonogenic assay in vitro, FIG. 7): increase cell kill
- Amprenavir SF2 [2]: 0.487 +/− 0.030
- cell kill, combination of radiation and Amprenavir [3]: significant increase in cell kill
- signaling in the Ras pathway ([4]; FIG. 4, SQ20b cells and T24 cells): inhibits
- phosphorylation of Akt at Ser 473 ([4]; SQ20B cells, 10 μM Amprenavir, Western blot): down-regulation
- phosphorylation of Akt at the Thr 308 site ([4]; SQ20B cells, 10 μM or 20 μM Amprenavir): no change
- phosphorylation of Akt at Ser 473 ([4]; SQ20B cells, 20 μM Amprenavir, Western blot (FIG. 3 and FIG. 5)): abolished
- peak plasma concentration [5]: 15.1 µM
- trough plasma concentration [5]: 0.63 µM
- Amprenavir SF2 [6]: 0.370 +/− 0.022
- leg contracture or fibrosis [7]: No differences
- Amprenavir SF2 [8]: 0.402 +/− 0.136
- Amprenavir SF2 [9]: 0.664 +/− 0.051
